Assay results as given in ChEMBL document CHEMBL1125682, “Novel synthesis and biochemical properties of an [125I]-labeled photoaffinity probe for thromboxane A2/prostaglandin H2 receptors” (J Med Chem, 1991).

Columns and labels:
Thromboxane A2 receptor [1] = target: T1, Thromboxane A2 receptor (Homo sapiens, UniProt P21731); test: Binding affinity towards Thromboxane A2/ Prostaglandin H2 receptor in human platelet membranes using [125I]- as the radioligand.; assay type: cell membranes
T1 sequence (P21731 whole entry): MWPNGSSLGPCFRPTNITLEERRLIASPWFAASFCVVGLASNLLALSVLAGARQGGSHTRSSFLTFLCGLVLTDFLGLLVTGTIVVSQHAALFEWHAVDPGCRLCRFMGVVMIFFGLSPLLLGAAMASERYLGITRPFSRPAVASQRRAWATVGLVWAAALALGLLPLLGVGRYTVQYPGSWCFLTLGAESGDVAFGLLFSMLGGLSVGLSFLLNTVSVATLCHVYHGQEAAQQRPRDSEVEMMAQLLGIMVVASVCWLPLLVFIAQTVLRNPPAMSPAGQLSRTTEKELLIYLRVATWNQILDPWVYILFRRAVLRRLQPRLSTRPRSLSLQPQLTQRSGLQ

Thromboxane A2 receptor [2] = target: T1, Thromboxane A2 receptor; test: Binding affinity towards Thromboxane A2 receptor/Prostaglandin receptor in human platelet membranes using [125I]- as the radioligand; assay type: cell membranes

Row | IC50 (Thromboxane A2 receptor [1]) [µM] | IC50 (Thromboxane A2 receptor [2]) [µM] | Compound
1 | 0.0112 | – | O=C(O)C[C@@H]1CCCc2c1n(Cc1ccc(Cl)cc1)c1ccc(F)cc21 (stereo in doubt; L-657925)
2 | 1.5 | – | O=C(O)C[C@@H]1CCCc2c1n(Cc1ccc(Cl)cc1)c1ccc(F)cc21 (stereo in doubt; L-657926)
3 | – | 0.05 | O=C(O)CCC/C=C\C[C@@H]1[C@@H](/C=C/[C@@H](O)COc2ccc(I)cc2)[C@H]2CC[C@@H]1O2
